# In patent US8574563B2 (Bristol-Myers Squibb Company, priority 2006, dated 2013):
# Tested on: HCV 1b-377-neo replicon cells
# Assay: HCV replicon assay, HCV 1b-377-neo replicon cells (1b FRET)
# Assay type: cell-based, Hepatitis C virus genotype 1b
# Details: HCV 1b-377-neo replicon cells; HCV 1b genotype; read-out: EC50 range against HCV 1b (Table 2, Range)
# Procedure, shortened: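 FRET-based replicon assay in HCV 1b-377-neo cells, including a comparison line carrying the NS5A Y2065H mutation that confers resistance to a reference compound.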
row,Compound,EC50 [nM]
1,"O=C(OCc1ccccc1)N1CCN(C(C(=O)N2CCC[C@H]2c2ncc(-c3ccc(-c4ccc(-c5c[nH]c([C@@H]6CCCN6C(=O)[C@H]6CCCO6)n5)cc4)cc3)[nH]2)c2ccccc2)CC1 (single isomer, unassigned) [Example 103-6]",1 to 99
2,"O=C(C(c1ccccc1)N1CCC(c2ccccc2)CC1)N1CCC[C@H]1c1ncc(-c2ccc(-c3ccc(-c4c[nH]c([C@@H]5CCCN5C(=O)[C@H]5CCCO5)n4)cc3)cc2)[nH]1 (stereo partly drawn) [Example 103-2, 1-(2-oxo-1-phenyl-2-((2S)-2-(5-(4′-(2-((2S)-1-((2R)-tetrahydro-2-furanylcarbonyl)-2-pyrrolidinyl)-1H-imidazol-4-yl)-4-biphenylyl)-1H-imidazol-2-yl)-1-pyrrolidinyl)ethyl)-4-phenylpiperidine]",0.001 to 0.999

# Same assay, conditions: Hepatitis C virus, HCV 1b-377-neo replicon cells; HCV 1b genotype; read-out: EC50 range against HCV 1b (Table 2, Range)
row,Compound,EC50 [nM]
1,"CC(C)CC(=O)N1[C@@H](C)CC[C@H]1c1nc(-c2ccc(-c3ccc(-c4c[nH]c([C@@H]5CC[C@H](C)N5C(=O)CC(C)C)n4)cc3)cc2)c[nH]1 [Example M158, 4,4′-(4,4′-biphenyldiyl)bis(2-((2S,5S)-5-methyl-1-(3-methylbutanoyl)-2-pyrrolidinyl)-1H-imidazole)]",1 to 99
2,"COC(=O)N[C@@H](C(=O)N1C[C@H](O)C[C@H]1c1nc(-c2ccc(-c3ccc(-c4c[nH]c([C@@H]5C[C@@H](O)CN5C(=O)[C@H](NC(=O)OC)c5ccccc5)n4)cc3)cc2)c[nH]1)c1ccccc1 [Example 24-11, dimethyl (4,4′-biphenyldiylbis(1H-imidazole-5,2-diyl((2S,4R)-4-hydroxy-2,1-pyrrolidinediyl)((1R)-2-oxo-1-phenyl-2,1-ethanediyl)))biscarbamate]",1 to 99
3,"COC(=O)N[C@@H](C(=O)N1CCC[C@H]1c1ncc(-c2ccc(-c3ccc(-c4cnc([C@@H]5CCCN5C(=O)N(C)C)[nH]4)cc3)cc2)[nH]1)c1ccccc1 [Example 50, methyl ((1R)-2-((2S)-2-(5-(4′-(2-((2S)-1-(dimethylcarbamoyl)-2-pyrrolidinyl)-1H-imidazol-5-yl)-4-biphenylyl)-1H-imidazol-2-yl)-1-pyrrolidinyl)-2-oxo-1-phenylethyl)carbamate]",100 to 999
4,"CC(C)OC(=O)N[C@H](C(=O)N1CCC[C@H]1c1nc(-c2ccc(-c3ccc(-c4c[nH]c([C@@H]5CCCN5C(=O)[C@@H](NC(=O)OC(C)C)C(C)C)n4)cc3)cc2)c[nH]1)C(C)C [Example F26, isopropyl ((1S)-1-(((2S)-2-(4-(4′-(2-((2S)-1-((2S)-2-((isopropoxycarbonyl)amino)-3-methylbutanoyl)-2-pyrrolidinyl)-1H-imidazol-4-yl)-4-biphenylyl)-1H-imidazol-2-yl)-1-pyrrolidinyl)carbonyl)-2-methylpropyl)carbamate]",1 to 99
5,"C=CCCOC(=O)N[C@H](C(=O)N1CCC[C@H]1c1ncc(-c2ccc(-c3ccc(-c4cnc([C@@H]5CCCN5C(=O)[C@@H](NC(=O)OCCC=C)C(C)C)[nH]4)cc3)cc2)[nH]1)C(C)C [LS16, 3-buten-1-yl ((1S)-1-(((2S)-2-(5-(4′-(2-((2S)-1-((2S)-2-(((3-buten-1-yloxy)carbonyl)amino)-3-methylbutanoyl)-2-pyrrolidinyl)-1H-imidazol-5-yl)-4-biphenylyl)-1H-imidazol-2-yl)-1-pyrrolidinyl)carbonyl)-2-methylpropyl)carbamate]",1 to 99
6,"O=C(C(c1ccccc1)c1ccccc1)N1CCC[C@H]1c1ncc(-c2ccc(-c3ccc(-c4cnc([C@@H]5CCCN5C(=O)[C@@H](c5ccccc5)N5CCCCC5)[nH]4)cc3)cc2)[nH]1 [Example 107-6, 1-((1R)-2-((2S)-2-(5-(4′-(2-((2S)-1-(diphenylacetyl)-2-pyrrolidinyl)-1H-imidazol-5-yl)-4-biphenylyl)-1H-imidazol-2-yl)-1-pyrrolidinyl)-2-oxo-1-phenylethyl) piperidine]",0.001 to 0.999
7,"COC(=O)N[C@@H](C(=O)N1CCC[C@H]1c1ncc(-c2ccc(-c3ccc(-c4cnc([C@@H]5CCCN5C(=O)C(c5cccc6ccccc56)N(C)C)[nH]4)cc3)cc2)[nH]1)c1ccccc1 (stereo partly drawn) [Example 84-51, methyl ((1R)-2-((2S)-2-(5-(4′-(2-((2S)-1-((dimethylamino)(1-naphthyl)acetyl)-2-pyrrolidinyl)-1H-imidazol-5-yl)-4-biphenylyl)-1H-imidazol-2-yl)-1-pyrrolidinyl)-2-oxo-1-phenylethyl)carbamate]",0.001 to 0.999
8,"O=C(Cc1ccccc1CN1CCOCC1)N1CCC[C@H]1c1ncc(-c2ccc(-c3ccc(-c4cnc([C@@H]5CCCN5C(=O)[C@@H](c5ccccc5)N5CCCCC5)[nH]4)cc3)cc2)[nH]1 [Example 107-26, 4-(2-(2-oxo-2-((2S)-2-(5-(4′-(2-((2S)-1-((2R)-2-phenyl-2-(1-piperidinyl)acetyl)-2-pyrrolidinyl)-1H-imidazol-5-yl)-4-biphenylyl)-1H-imidazol-2-yl)-1-pyrrolidinyl)ethyl)benzyl) morpholine]",0.001 to 0.999
9,"CCCN(CCC)[C@H](C)C(=O)N1CCC[C@H]1c1ncc(-c2ccc(-c3ccc(-c4cnc([C@@H]5CCCN5C(=O)[C@H](NC(=O)OC)c5ccccc5)[nH]4)cc3)cc2)[nH]1 [Example M64, methyl ((1R)-2-((2S)-2-(5-(4′-(2-((2S)-1-(N,N-dipropyl-D-alanyl)-2-pyrrolidinyl)-1H-imidazol-5-yl)-4-biphenylyl)-1H-imidazol-2-yl)-1-pyrrolidinyl)-2-oxo-1-phenylethyl)carbamate]",1 to 99
10,"CN(C)[C@@H](C(=O)N1CC(F)(F)C[C@H]1c1ncc(-c2ccc(-c3ccc(-c4cnc([C@@H]5CC(F)(F)CN5C(=O)[C@@H](c5ccccc5)N(C)C)[nH]4)cc3)cc2)[nH]1)c1ccccc1 [OL-8, (1R,1′R)-2,2′-(4,4′-biphenyldiylbis(1H-imidazole-4,2-diyl((2S)-4,4-difluoro-2,1-pyrrolidinediyl)))bis(N,N-dimethyl-2-oxo-1-phenylethanamine)]",0.001 to 0.999
11,"CCN(CC)[C@@H](C(=O)N1CCC[C@H]1c1ncc(-c2ccc(-c3ccc(-c4cnc([C@@H]5CCCN5C(=O)[C@H](Cc5cccnc5)NC(=O)OC)[nH]4)cc3)cc2)[nH]1)c1ccccc1 [cj-84, methyl ((1S)-2-((2S)-2-(5-(4′-(2-((2S)-1-((2R)-2-(diethylamino)-2-phenylacetyl)-2-pyrrolidinyl)-1H-imidazol-5-yl)-4-biphenylyl)-1H-imidazol-2-yl)-1-pyrrolidinyl)-2-oxo-1-(3-pyridinylmethyl)ethyl)carbamate]",0.001 to 0.999
12,"CN(C)[C@@H](C(=O)N1CCC[C@H]1c1ncc(-c2ccc(-c3ccc(-c4cnc([C@@H]5CCCN5C(=O)Cc5cccc(O)c5)[nH]4)cc3)cc2)[nH]1)c1ccccc1 [Example 94-13, 3-(2-((2S)-2-(5-(4′-(2-((2S)-1-((2R)-2-(dimethylamino)-2-phenylacetyl)-2-pyrrolidinyl)-1H-imidazol-5-yl)-4-biphenylyl)-1H-imidazol-2-yl)-1-pyrrolidinyl)-2-oxoethyl)phenol]",0.001 to 0.999
13,"COC(=O)N[C@@H](C(=O)N1CCC[C@H]1c1ncc(-c2ccc(-c3ccc(-c4cnc([C@@H]5CCCN5C(=O)[C@@H](c5ccccc5)N(C)C)[nH]4)cc3C)c(C)c2)[nH]1)c1ccccc1 [Example 129, methyl ((1R)-2-((2S)-2-(5-(4′-(2-((2S)-1-((2R)-2-(dimethylamino)-2-phenylacetyl)-2-pyrrolidinyl)-1H-imidazol-5-yl)-2,2′-dimethyl-4-biphenylyl)-1H-imidazol-2-yl)-1-pyrrolidinyl)-2-oxo-1-phenylethyl)carbamate]",0.001 to 0.999
14,"CN(C)Cc1ccccc1CC(=O)N1CCC[C@H]1c1ncc(-c2ccc(-c3ccc(-c4cnc([C@@H]5CCCN5C(=O)[C@@H](c5ccccc5)N5CCCCC5)[nH]4)cc3)cc2)[nH]1 [Example 107-23, N,N-dimethyl-1-(2-(2-oxo-2-((2S)-2-(5-(4′-(2-((2S)-1-((2R)-2-phenyl-2-(1-piperidinyl)acetyl)-2-pyrrolidinyl)-1H-imidazol-5-yl)-4-biphenylyl)-1H-imidazol-2-yl)-1-pyrrolidinyl)ethyl)phenyl) methanamine]",0.001 to 0.999
15,"CCCN(CCC)[C@H](C)C(=O)N1CCC[C@H]1c1ncc(-c2ccc(-c3ccc(-c4cnc([C@@H]5CCCN5C(=O)[C@H](C)NC(=O)OC)[nH]4)cc3)cc2)[nH]1 [Example M102, methyl ((1S)-2-((2S)-2-(5-(4′-(2-((2S)-1-(N,N-dipropyl-D-alanyl)-2-pyrrolidinyl)-1H-imidazol-5-yl)-4-biphenylyl)-1H-imidazol-2-yl)-1-pyrrolidinyl)-1-methyl-2-oxoethyl)carbamate]",1 to 99
16,"CCN(CC)CCC(NC(=O)OC)C(=O)N1CCC[C@H]1c1ncc(-c2ccc(-c3ccc(-c4cnc([C@@H]5CCCN5C(=O)[C@H](NC(=O)OC)c5ccccc5)[nH]4)cc3)cc2)[nH]1 (stereo partly drawn) [Example M66a, methyl ((1R)-2-((2S)-2-(5-(4′-(2-((2S)-1-(4-(diethylamino)-2-((methoxycarbonyl)amino)butanoyl)-2-pyrrolidinyl)-1H-imidazol-5-yl)-4-biphenylyl)-1H-imidazol-2-yl)-1-pyrrolidinyl)-2-oxo-1-phenylethyl)carbamate]",100 to 999
17,"CCOC(=O)c1nc([C@@H]2CCCN2C(=O)[C@H](NC(=O)OC)c2ccccc2)[nH]c1-c1ccc(-c2ccc(-c3cnc([C@@H]4CCCN4C(=O)[C@H](NC(=O)OC)c4ccccc4)[nH]3)cc2)cc1 [Example J19, ethyl 2-((2S)-1-((2R)-2-((methoxycarbonyl)amino)-2-phenylacetyl)-2-pyrrolidinyl)-5-(4′-(2-((2S)-1-((2R)-2-((mcthoxycarbonyl)amino)-2-phenylacetyl)-2-pyrrolidinyl)-1H-imidazol-5-yl)-4-biphenylyl)-1H-imidazole-4-carboxylate]",0.001 to 0.999
18,"COC(=O)N[C@@H](C(=O)N1CCC[C@H]1c1nc(-c2cc(-c3ccc(-c4cnc([C@@H]5CCCN5C(=O)[C@H](NC(=O)OC)c5ccccc5)[nH]4)cc3)ccc2OC)c[nH]1)c1ccccc1 [Example D34, dimethyl ((4-methoxy-3,4′-biphenyldiyl)bis(1H-imidazole-5,2-diyl(2S)-2,1-pyrrolidinediyl((1R)-2-oxo-1-phenyl-2,1-ethanediyl))) biscarbamate]",0.001 to 0.999
